From patent publication US20220362401A1, “PARTICLES, METHOD FOR PRODUCING PARTICLES, DRUG, METHOD FOR PRODUCING DRUG, AND ANTI-CANCER AGENT” (THE UNIVERSITY OF KITAKYUSHU, priority 2019, published 2022)

System: mouse colorectal cancer cell CT26
Assay: Anti-tumor effect in tumor-bearing mice, transition of tumor volume
Format: in vivo, mice (BALB/c)
Conditions: i.v. injection, α-mangostin 10 mg/kg, nanoparticles of average particle size 20 nm, FIG. 9
Protocol: The anti-tumor effect of the particles of the present invention containing α-mangostin was examined using mice (BALB/c, 7 weeks old, male) that bore the mouse colorectal cancer cell CT26. It was confirmed that the size of the tumor that the mice bore reached 100 mm^3 (7 days after), and a sample was intravenously administered (i. v. injection). The doses of α-mangostin at this time were standardized to 10 mg/kg. The transition of the tumor volume was observed after the administration.
Nanoparticles: average particle size: 20 nm (produced under the conditions of X (TX100): 0.15 mM and Y (ECH): 2.1 mL of Production Example 5) α-mangostin: Tokyo Chemical Industry Co., Ltd. Buffer solution: phosphate buffer (pH 7.5) nanoparticles containing no α-mangostin: only the nanoparticles (50 mg/mL) α-mangostin solution: α-mangostin solution (1.0 mM) containing 0.4 vol % DMSO, 2 vol % ethanol, and 2 vol TWEEN 80 (surfactant) nanoparticles containing α-mangostin: solution in which α-mangostin was contained in the nanoparticles (nanoparticle concentration: 50 mg/mL, α-mangostin concentration: 1.0 mM) Experimental data (animal experiment using mice)

COc1c(O)cc2oc3cc(O)c(CC=C(C)C)c(O)c3c(=O)c2c1CC=C(C)C [MGS, α-mangostin]
effect of suppressing the cancer growth (tumor volume): not observed
